Test in all cases: NCI-60 cell line screen, 48 h
For assay [1], the system named is CAKI-1 renal.
For assay [2], the system named is HCT-116 colon.
Assay [3] has as its system IGROV1 ovarian.
The subject of assay [4] is LOX IMVI melanoma.
Assay [5] deals with OVCAR-8 ovarian.
Assay [6] has as its system PC-3 prostate.
The test system of assay [7] is SK-MEL-5 melanoma.
Assay [8] concerns SK-OV-3 ovarian.
Assay [9] relates to SW-620 colon.
Assay [10] deals with UACC-257 melanoma.

Each structure is given as a SMILES string. “And” between values parts separate entries of the source, which are not always exact repeats. Equal entries are not always repeated.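 Compound exposure: 48 hours, 5 concentrations, 96-well plates. Abbreviation: GI50, concentration required for 50% inhibition of growth. TGI: total growth inhibition.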 Where a SMILES comes first, the peptide text is derived from it. Bridges are numbered along the chain shown (N, C = ends). [ ]: non-standard residue; d: D form. aThr = C[C@H](O)[C@H](N)C(=O)O

Consider `CCC(c1ccccc1)c1noc(CCN(CC)CC)n1` (centres undefined), for which the GI50 was 2.18 µM in assay [1]; 18.5 µM in assay [2]; greater than 48.5 µM in assay [3]; 34.1 µM in assay [4]; 32.5 µM in [5]; 49.6 µM in assay [6]. Further, the GI50 in assay [7] is 31.1 µM; in [8], greater than 100 µM; in assay [9], 21 µM; in [10], greater than 51.2 µM. Besides, the TGI is 6.39 µM in assay [1]; 43.4 µM in assay [2]; greater than 92.1 µM in [3]; greater than 60.3 µM in [4]; greater than 100 µM in assay [5]; greater than 100 µM in [6]. The TGI was greater than 100 µM in [7], greater than 100 µM in [8], greater than 68.1 µM in [9] and greater than 100 µM in [10].

Consider `COc1ccccc1CNCCN1C(=O)c2ccc3c4c(ccc(c24)C1=O)C(=O)N(CCNCc1ccccc1OC)C3=O`, for which the GI50 in assay [1] is 1.64 µM; in assay [2] it was 0.189 µM; in assay [3] it was 0.203 µM; in assay [4], 0.168 µM; in [5], 0.215 µM; in assay [6], 0.317 µM. Moreover, the GI50 in assay [7] is 0.348 µM; in assay [8], 1.55 µM; in assay [9], 0.235 µM; in [10], 0.196 µM. Besides, the TGI in assay [1] was 5.26 µM; in assay [2] it was 0.406 µM; in assay [3] it was 0.549 µM; in assay [4], 0.338 µM; in assay [5], 0.505 µM; in [6], 0.963 µM. Also, the TGI is 1.4 µM in [7], 3.15 µM in assay [8], 0.591 µM in [9] and 0.387 µM in [10].

Turning to `C=CCN(CC=C)C(=O)c1cc(C)nc2c1c(=O)n(-c1ccccc1)c(=O)n2CCCN1CCN(c2ccccc2OC)CC1`, the GI50 in [1], in assay [2], in [3], in [4], in [5] and in assay [6] was greater than 50 µM each time. The GI50 in assay [7], in assay [8], in assay [9] and in [10] was greater than 50 µM each time. Also, the TGI in assay [1], in [2], in [3], in [4], in assay [5] and in assay [6] was greater than 50 µM throughout. Moreover, the TGI in assay [7], in [8], in assay [9] and in [10] was greater than 50 µM in each case.

Regarding `O=C(c1cccs1)c1c(C(F)(F)F)n([O-])c2cc(Cl)c(Cl)cc2[n+]1=O`, the GI50 in assay [1] was 1.53 µM; in [2], 0.429 µM; in assay [3], 0.073 µM; in assay [4], 0.0703 µM; in assay [5], 1.46 µM; in assay [6] it was 1.37 µM. Further, the GI50 was 1.28 µM in [7], 2.18 µM in assay [8], 0.0876 µM in [9] and 1.86 µM in assay [10]. The TGI in [1] was determined as 2.92 µM; in [2] it was 0.913 µM; in assay [3], 1.07 µM; in [4], 0.493 µM; in [5] it was 3.47 µM; in assay [6], 2.81 µM. Also, the TGI in [7] was 2.65 µM; in assay [8] it was 4.04 µM; in assay [9], 0.865 µM; in assay [10], 3.85 µM.

`CC(C)C[C@@H]1NC(=O)[C@@H]2CCCN2C(=O)[C@@H]2CCCN2C(=O)[C@H](CC(C)C)NC(=O)[C@H](CO)NC(=O)[C@H](CCCCN)NC(=O)[C@H]([C@H](C)O)NC(=O)[C@@H]2CSSC[C@@H](NC1=O)C(=O)N[C@@H](Cc1ccccc1)C(=O)N1CCC[C@H]1C(=O)N[C@@H](CC(=O)O)C(=O)NCC(=O)N[C@@H](CCCN=C(N)N)C(=O)N2` (cyclo(C[aThr]KSLPPL[dC]FPDGR); disulfide 1-9): the GI50 was greater than 50 µM in assay [1]; greater than 50 µM in assay [2]; greater than 46.4 µM in [3]; greater than 50 µM in assay [4]; greater than 50 µM in assay [5]; greater than 50 µM in assay [6]. Besides, the GI50 in assay [7], in assay [8], in assay [9] and in assay [10] was greater than 50 µM each time. Also, the TGI in assay [1], in assay [2], in assay [3], in [4], in [5] and in [6] was greater than 50 µM throughout. The TGI in assay [7], in [8], in [9] and in assay [10] was greater than 50 µM throughout.

On to `Cc1noc(NC(=O)Nc2ccccc2F)c1C#N`, for which the TGI in assay [1] was greater than 100 µM; in [2], greater than 43 µM; in [3] it was greater than 100 µM; in assay [4], greater than 100 µM; in assay [5], greater than 100 µM; in [6] it was greater than 41.3 µM. In addition, the TGI was greater than 100 µM in [7], greater than 100 µM in assay [8], greater than 100 µM in assay [9] and greater than 51 µM in [10].

On to `COCCOC1=C(Cl)C(=O)c2ccccc2C1=O`, for which the GI50 in assay [1] was 2.83 µM; in [2], 1.82 µM; in [3] it was 2.62 µM; in [4] it was 1.75 µM; in [5], 3.11 µM; in assay [6], 2.18 µM. Moreover, the GI50 in [7] is 1.82 µM; in assay [8] it was 4.55 µM; in assay [9] it was 1.7 µM; in assay [10], 2 µM. Also, the TGI was 9.83 µM in assay [1]; 3.58 µM in assay [2]; 6.44 µM in assay [3]; 3.31 µM in [4]; 10.7 µM in assay [5]; 5.55 µM in assay [6]. Further, the TGI in assay [7] stood at 3.51 µM; in [8], 16.8 µM; in assay [9], 3.32 µM; in assay [10], 4.36 µM.

In the case of `CC(=O)Oc1c(C(=O)[O-])cc(C(C)C)cc1C(C)C.CC(=O)Oc1c(C(=O)[O-])cc(C(C)C)cc1C(C)C.CC(=O)Oc1c(C(=O)[O-])cc(C(C)C)cc1C(C)C.CC(=O)Oc1c(C(=O)[O-])cc(C(C)C)cc1C(C)C.[Cu+2].[Cu+2]`, the GI50 is greater than 100 µM in assay [1]; 28.7 µM in assay [2]; 30.4 µM in [3]; 2.74 µM in assay [4]; 30.6 µM in assay [5]; 57.3 µM in assay [6]. The GI50 in [7] is 18 µM; in assay [8], 14.4 µM; in assay [9] it was 42.1 µM; in assay [10], 18.2 µM. Further, the TGI was greater than 100 µM in assay [1]; greater than 100 µM in [2]; greater than 100 µM in assay [3]; 25.8 µM in assay [4]; greater than 100 µM in assay [5]; greater than 100 µM in [6]. Further, the TGI in assay [7] was 32.9 µM; in [8] it was 35.4 µM; in assay [9], greater than 100 µM; in assay [10], 36.9 µM.

For `NC(N)=NCCCC(NCc1c2ccccc2nc2ccccc12)C(=O)O` (centres undefined), the TGI is greater than 100 µM in assay [1]; greater than 100 µM in [2]; greater than 100 µM in assay [3]; 97.9 µM in [4]; greater than 86 µM in assay [5]; greater than 100 µM in assay [6]. For the same molecule, the TGI in [7] was greater than 62.2 µM; in assay [8], greater than 100 µM; in assay [9] it was greater than 100 µM; in assay [10], greater than 88.6 µM.

For `CCCCCCCCCCCC[C@@H](O)[C@H]1CC[C@H]([C@H](O)CC[C@H](O)[C@@H]2CC[C@@H](CCCCCCCC3=C[C@H](C)OC3=O)O2)O1`, the TGI in [1] was greater than 50 µM; in assay [2], greater than 50 µM; in assay [3] it was greater than 50 µM; in [5] it was greater than 50 µM; in assay [6], greater than 50 µM; in assay [7], 7.93 µM and > 50 µM. For the same molecule, the TGI in assay [8] and in assay [9] was greater than 50 µM in each case. Further, the GI50 was 1.7 µM in [2]; 8.89 µM in [3]; 1.13 µM in [4]; 6.6 µM in assay [5]; 3.3 µM in assay [6]; 1.3 µM in [7]. Moreover, the results for the GI50 in [9] and in [10] were 3.23 µM and 0.152 µM, respectively.

Turning to `CCOC(=O)/C(=C\c1cccc(C)c1)C(C)=O`, the TGI in [1] is 98.8 µM; in [2], 30.4 µM; in assay [3], 40.8 µM; in assay [4], 26.5 µM; in [5] it was 75.1 µM; in assay [6], 28.3 µM. Also, the TGI in assay [7] is 32 µM; in [8], greater than 100 µM; in assay [9], 27 µM; in [10], 35.1 µM.

As to `N#CC(C#N)=C/C=C(\Sc1ccc(Cl)cc1)c1ccc(F)cc1`, the GI50 is 0.465 µM in assay [1]; 0.0671 µM in assay [2]; 2.09 µM in assay [3]; 0.403 µM in [4]; 5.89 µM in [5]; 0.496 µM in [6]. Further, the GI50 is 1.76 µM in assay [7], 13.5 µM in assay [8], 0.0532 µM in assay [9] and 6.88 µM in assay [10]. Moreover, the TGI in assay [1] was 2.77 µM; in [2], 0.508 µM; in assay [3], 12.3 µM; in assay [5] it was 12.7 µM; in assay [6], 6.19 µM; in [7] it was 6.33 µM. Further, the TGI in assay [8] worked out at 40.7 µM; in [10], 14.7 µM.

`Cc1ccc(NC(=O)c2cc(S(=O)(=O)Nc3nnc(-c4ccccc4)c(-c4ccccc4)n3)c(SCc3ccccc3)cc2Cl)cc1`: the GI50 in assay [1] is 21.2 µM; in assay [2], 28.5 µM; in assay [3], 26.9 µM; in assay [4] it was 13.3 µM; in assay [5] it was 29.4 µM; in assay [6], 18.2 µM. For the same molecule, the GI50 was 19.2 µM in assay [7], 22 µM in assay [8], 25.1 µM in assay [9] and 20.7 µM in assay [10]. Further, the TGI was determined as 40.7 µM in assay [1]; 75.7 µM in assay [2]; 93.7 µM in assay [3]; 28.6 µM in [4]; 76.8 µM in assay [5]; 49.1 µM in assay [6]. The TGI in [7] is 37.6 µM; in [8], 41.6 µM; in assay [9] it was 55.4 µM; in assay [10] it was 41.7 µM.

In the case of `CSc1nc2nc(-c3ccccc3)c(C)c-2c2n1C(C)C(=O)N2` (centres undefined), the GI50 in [1] was 53.6 µM; in [2], 37.4 µM; in [3], 41.5 µM; in [4] it was 46.7 µM; in assay [5], 45.7 µM; in assay [6], 31.3 µM. The GI50 is 16.9 µM in assay [7], 8.43 µM in [8], 58.8 µM in assay [9] and 51.3 µM in assay [10]. Also, the TGI in assay [1], in assay [2], in assay [3], in assay [4], in assay [5] and in assay [6] was greater than 100 µM each time. The TGI in assay [7] was 35.5 µM; in [8] it was 59.1 µM; in assay [9] it was greater than 100 µM; in assay [10] it was greater than 100 µM.

On to `Cc1cc(Br)c(NC(=O)c2c(-c3c(Cl)cccc3Cl)noc2C)c(Br)c1`, for which the GI50 is 7.81 µM in assay [1]; greater than 100 µM in assay [2]; greater than 100 µM in assay [3]; greater than 100 µM in assay [4]; greater than 100 µM in assay [5]; greater than 100 µM in assay [6]. The GI50 in assay [7], in assay [8], in [9] and in assay [10] was greater than 100 µM in each case. The TGI in [1], in assay [2], in assay [3], in assay [4], in [5] and in assay [6] was greater than 100 µM in each case. The TGI in assay [7], in [8], in assay [9] and in [10] was greater than 100 µM throughout.

These data come from PubChem BioAssay (NCI).
